PubChem BioAssay (NCI)
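All cell lines were grown in 96-well plates and treated with compound for 48 hours. The concentration for 50% growth inhibition is given as GI50. TGI is the concentration that stops growth completely.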

Legend:
Assay in all cases: inhibition of tumour cell growth, NCI panel, 48 h
786-0 renal = tested on: 786-0 renal
EKVX NSCLC = tested on: EKVX NSCLC
HCT-116 colon = tested on: HCT-116 colon
IGROV1 ovarian = tested on: IGROV1 ovarian
NCI-H460 lung = tested on: NCI-H460 lung
OVCAR-4 ovarian = tested on: OVCAR-4 ovarian
SK-MEL-2 melanoma = tested on: SK-MEL-2 melanoma
SK-OV-3 ovarian = tested on: SK-OV-3 ovarian
SNB-19 CNS = tested on: SNB-19 CNS
TK-10 renal = tested on: TK-10 renal

Compound	GI50 (786-0 renal) [µM]	TGI (786-0 renal) [µM]	GI50 (EKVX NSCLC) [µM]	TGI (EKVX NSCLC) [µM]	GI50 (HCT-116 colon) [µM]	TGI (HCT-116 colon) [µM]	GI50 (IGROV1 ovarian) [µM]	TGI (IGROV1 ovarian) [µM]	GI50 (NCI-H460 lung) [µM]	TGI (NCI-H460 lung) [µM]	GI50 (OVCAR-4 ovarian) [µM]	TGI (OVCAR-4 ovarian) [µM]	GI50 (SK-MEL-2 melanoma) [µM]	TGI (SK-MEL-2 melanoma) [µM]	GI50 (SK-OV-3 ovarian) [µM]	TGI (SK-OV-3 ovarian) [µM]	GI50 (SNB-19 CNS) [µM]	TGI (SNB-19 CNS) [µM]	GI50 (TK-10 renal) [µM]	TGI (TK-10 renal) [µM]
CCCCn1c2cc(OCc3cn(-c4ccc(Cl)cc4)nn3)ccc2c2ccnc(C)c21	5.76	11	6.93	> 33.3	5.11	13.2	9.02	> 33.3	7.2	18.6	5.95	25.5	7.82	22.5	5.45	13.4	14.1	> 33.3	7.55	14.1
CN(C)CCCn1c2c(c3cnccc3c1=O)C(=O)c1ccccc1-2	0.361	13.6	2.33	16	0.245	11.7	0.411	3.75	0.39	1.75	0.601	8.89	0.829	3.6	1.96	28.7	0.362	3.96	0.721	27.6
COc1ccc(/C=N/N=C(\N)NO)cc1OC		> 100		> 100		> 100		> 100		> 100		> 100		> 100		> 100		> 100		> 100
Nc1ccc2c(SCCSc3c4ccccc4nc4cc(N)ccc34)c3ccccc3nc2c1		> 100		> 100		> 100		> 100		> 100		> 100		> 100		> 100		> 100		> 100
C(=N\Nc1ccccn1)/c1ccccn1	0.301		0.348	> 100	0.303	> 100	0.355	> 100	0.321	3.98	0.26		> 100	> 100	0.393		0.547	> 100		> 100
CCCCCCCCCC(=O)CC(=O)c1ccc(O)cc1O		> 100		73		66.6		> 100		> 100		> 100		49.9		> 100		> 100		> 100
Clc1ccc(-n2nnc(C3=NCCN3)c2-c2ccccc2)cc1		> 100		> 100		> 100		> 100		> 100		> 100		> 100		> 100		> 100		> 100
N#CC(=S)Nc1cccc(Cl)c1		> 100		> 100		> 100		29.4		> 100		> 100		> 100		87.9		> 100		> 100
COP(=O)(OC)C(NC(c1ccccc1)c1ccccc1)c1ccc2c(c1)OCO2 (stereo unspecified)	29.5	74.9	31.4	92.6	16.3	35.3	22	73.6	20.1	42	30.5	89.9	23.8	50.2	40.7	> 100	23.4	47.4	44.5	> 100
O=c1c2ccccc2c2ccccc2c(=O)n1-c1cc2c3ccccc3ccc2c2ccccc12		> 100		> 100		> 100		> 100		> 100		> 100		> 100		> 100		> 100		> 100
COC(=O)C(CCS(=O)(=O)CC(=O)C(=O)Nc1cccc(C(C)=O)c1)C(=O)OC		> 100		> 100		> 100		> 100		> 92		> 100		> 100		> 100		> 100		> 100
Cc1ccc2c(c1)nc(C(=O)c1ccco1)c(C(F)(F)F)[n+]2[O-]	> 100	> 100	57.5	> 100	> 100	> 100	48	> 100	> 100	> 100	76.3	> 100	> 100	> 100	> 100	> 100	> 100	> 100	> 100	> 100
CC12CCC3C(CC=C4CC(O)CCC43C)C1C/C(=C\N1CCCC1)C2=O (stereo unspecified)	> 100	> 100	46.6	> 100	69.3	> 100	51.8	> 100	> 100	> 100	61	> 100	> 100	> 100	> 100	> 100	> 100	> 100	> 100	> 100
O=C(O)c1cc2ccccc2c(O)c1O		27.6		51.1		30.7		34.7		41.8		35		14.6		29		35.8		40.7
CCCC1c2c(ccc3ccccc23)Oc2ccc3ccccc3c21		> 100		> 100		> 100		> 100		> 100		> 100		54.3		> 100		> 100		98.2
N[C@@H](Cc1c[nH]c2ccccc12)C(=O)NC1CCN(C(=O)c2c[nH]c3ccccc23)CC1	78.1	> 100	> 100	> 100	36.3	> 100	64.2	> 100	79.9	> 100	69.2	> 100	> 100	> 100	90.5	> 100	99.8	> 100	> 100	> 100
OC1(C(O)(c2ccc(-c3ccccc3)cc2)c2ccc(-c3ccccc3)cc2)CCCCC1		> 100		> 100		> 100		> 100		> 100		> 100		> 100		> 100		> 100		> 100
CSc1nc2c(c(=O)[nH]1)N=C1c3ccccc3C(=O)C1C(c1ccc(F)cc1)N2 (stereo unspecified)	12.4	27.3	18.2	> 100	7.23	19.9	11.3	> 100	5.1	38.7	15.4	67	49.3	> 100	14.1	50.4	15.9	66	12.9	37.6
Oc1ccc(/C=N\Nc2ccccn2)c(O)c1	1.53	> 100	1.4	7.46	1.7	> 100	0.638	3.64	0.443	3.99	2.87	> 100	9.43	> 100	3.24	> 100	2.97	> 100	8.41	> 100
O=C(/C=C/c1ccc(OCC(=O)N2CCN(c3ccccc3)CC2)cc1)c1ccc(Cl)cc1		73.7		> 83.9		> 100		> 100		> 100		> 97.7		98.3		73.8		50.7		> 90.6
C/C(=N/S(=O)(=O)c1ccc(Cl)c(Cl)c1)OCC(C)(C)C		> 100		> 100		> 100		> 100		> 100		> 100		> 100		> 100		> 100		> 100
